Results published in patent publication US20230295181A1, “INHIBITOR OF APOPTOSIS (IAP) PROTEIN ANTAGONISTS” (Sanford Burnham Prebys Medical Discovery Institute, priority 2020, published 2023).
Structures can show the parent of a compound that is named as a salt.

System: SKOV-3 cancer cell lines
Assay: SKOV-3 cell viability after treatment with 10 μM test compound
Assay type: cell-based
Conditions: 10 micromolar test compound, dihydrochloride
Experimental: SKOV-3 cancer cell lines were treated with a test compound, either as a pure enantiomer or a mixture of stereoisomers, at a concentration of 10 μM. Cell viability was evaluated following treatment with a compound as disclosed in Table B. Viability of cancer cells following treatment is indicated according to the following legend:
A=0-25% viability B=26-50% viability C=>50% viability

SMILES	% viability after treatment with 10 micromolar of test compound (SKOV-3 cells)
CN[C@@H](C)C(=O)N[C@H]1CCO[C@H]2CC(C)(C)[C@@H](CN[C@@H]3CCSc4ccccc43)N2C1=O [Compound 68, (S)—N-((4S,7S,9aS)-8,8-dimethyl-5-oxo-7-((((R)-thiochroman-4-yl)amino)methyl)octahydropyrrolo[2,1-b][1,3]oxazepin-4-yl)-2-(methylamino)propanamide dihydrochloride]	C (C=>50% viability)

Same assay, conditions: 10 micromolar test compound, hydrochloride

SMILES	% viability after treatment with 10 micromolar of test compound (SKOV-3 cells)
C=CCC1C[C@@H]2SCC[C@H](NC(=O)[C@H](C)NC)C(=O)N2[C@@H]1C(=O)N[C@@H]1CCCc2ccccc21 (stereo partly drawn) [Compound 30, (4S,9aS)-8,8-allyl-4-((S)-2-(methylamino)propanamido)-5-oxo-N—((R)-1,2,3,4-tetrahydronaphthalen-1-yl)octahydropyrrolo[2,1-b][1,3]thiazepine-7-carboxamide hydrochloride]	B (B=26-50% viability)
CN[C@@H](C)C(=O)N[C@H]1CCO[C@H]2CC(CCc3ccccc3)(CCc3ccccc3)[C@@H](C(=O)N[C@@H]3CCCc4ccccc43)N2C1=O [Compound 26, (4S,9aS)-4-((S)-2-(methylamino)propanamido)-5-oxo-8,8-diphenethyl-N—((R)-1,2,3,4-tetrahydronaphthalen-1-yl)octahydropyrrolo[2,1-b][1,3]oxazepine-7-carboxamide hydrochloride]	C (C=>50% viability)
CN[C@@H](C)C(=O)N[C@H]1CCO[C@H]2CC(CCc3ccccc3)(CCc3ccccc3)[C@@H](C(=O)N[C@@H]3CCCc4ccccc43)N2C1=O [Compound 25, (4S,9aS)-4-((S)-2-(methylamino)propanamido)-5-oxo-8,8-diphenethyl-N—((R)-1,2,3,4-tetrahydronaphthalen-1-yl)octahydropyrrolo[2,1-b][1,3]oxazepine-7-carboxamide hydrochloride]	B (B=26-50% viability)
C=CCC1C[C@@H]2SCC[C@H](NC(=O)[C@H](C)NC)C(=O)N2[C@@H]1C(=O)N[C@@H]1CCCc2ccccc21 (stereo partly drawn) [Compound 27, (4S,9aS)-8,8-allyl-4-((S)-2-(methylamino)propanamido)-5-oxo-N—((R)-1,2,3,4-tetrahydronaphthalen-1-yl)octahydropyrrolo[2,1-b][1,3]thiazepine-7-carboxamide hydrochloride]	B (B=26-50% viability)
CN[C@@H](C)C(=O)N[C@H]1CCO[C@H]2CC(C(C)C)(C(C)C)[C@@H](C(=O)NC(c3ccccc3)c3ccccc3)N2C1=O [Compound 60, (4S)—N-benzhydryl-8,8-diisopropyl-4-((S)-2-(methylamino)propanamido)-5-oxooctahydropyrrolo[2,1-b][1,3]oxazepine-7-carboxamide hydrochloride]	A (A=0-25% viability)
C=CCC1(CC=C)C[C@@H]2OCC[C@H](NC(=O)[C@H](C)NC)C(=O)N2[C@@H]1C(=O)NC(c1ccccc1)c1ccccc1 [Compound 52, (4S)-8,8-diallyl-N-benzhydryl-4-((S)-2-(methylamino)propanamido)-5-oxooctahydropyrrolo[2,1-b][1,3]oxazepine-7-carboxamide hydrochloride]	B (B=26-50% viability)
CN[C@@H](C)C(=O)N[C@H]1CCS[C@H]2CC(C(C)C)(C(C)C)[C@@H](C(=O)N[C@@H]3CCCc4ccccc43)N2C1=O [Compound 40, 4S,9aS)-8,8-diisopropyl-4-((S)-2-(methylamino)propanamido)-5-oxo-N—((R)-1,2,3,4-tetrahydronaphthalen-1-yl)octahydropyrrolo[2,1-b][1,3]thiazepine-7-carboxamide hydrochloride]	C (C=>50% viability)
CCC1(CC)C[C@@H]2SCC[C@H](NC(=O)[C@H](C)NC)C(=O)N2[C@@H]1C(=O)N[C@@H]1CCCc2ccccc21 [Compound 37, (4S,9aS)-8,8-diethyl-4-((S)-2-(methylamino)propanamido)-5-oxo-N—((R)-1,2,3,4-tetrahydronaphthalen-1-yl)octahydropyrrolo[2,1-b][1,3]thiazepine-7-carboxamide hydrochloride]	B (B=26-50% viability)
C=CCC1(CC=C)C[C@@H]2SCC[C@H](NC(=O)[C@H](C)NC)C(=O)N2[C@@H]1C(=O)N[C@@H]1CCCc2ccccc21 [Compound 31, (4S,9aS)-8,8-diallyl-4-((S)-2-(methylamino)propanamido)-5-oxo-N—((R)-1,2,3,4-tetrahydronaphthalen-1-yl)octahydropyrrolo[2,1-b][1,3]thiazepine-7-carboxamide hydrochloride]	B (B=26-50% viability)

Same assay, conditions: Homo sapiens, SK-OV-3, 10 micromolar test compound; SKOV-3 cells

SMILES	viability at 10 µM
CN[C@@H](C)C(=O)N[C@H]1CCO[C@H]2CC(CCc3ccccc3)(CCc3ccccc3)[C@H](C(=O)N[C@@H]3CCCc4ccccc43)N2C1=O [Compound 22, (4S,9aS)-4-((S)-2-(methylamino)propanamido)-5-oxo-8,8-diphenethyl-N—((R)-1,2,3,4-tetrahydronaphthalen-1-yl)octahydropyrrolo[2,1-b][1,3]oxazepine-7-carboxamide hydrochloride]	0 to 25%
C#CCO[C@@H]1Cc2ccccc2[C@@H]1NC(=O)[C@H]1N2C(=O)[C@@H](NC(=O)[C@H](C)NC)CCS[C@H]2CC1(C)C [Compound 83, (2S)-1-{[(4S,7S,9aS)-8,8-Dimethyl-5-oxo-7-{[(1S,2R)-2-(prop-2-yn-1-yloxy)-2,3-dihydro-1H-inden-1-yl]carbamoyl}octahydropyrrolo[2,1-b][1,3]thiazepin-4-yl]amino}-N-methyl-1-oxopropan-2-ammonium chloride]	0 to 25%
C=CCC1(CC=C)C[C@@H]2SCC[C@H](NC(=O)[C@H](C)NC)C(=O)N2[C@H]1C(=O)N[C@@H]1CCCc2ccccc21 [Compound 28, (4S,9aS)-8,8-diallyl-4-((S)-2-(methylamino)propanamido)-5-oxo-N—((R)-1,2,3,4-tetrahydronaphthalen-1-yl)octahydropyrrolo[2,1-b][1,3]thiazepine-7-carboxamide hydrochloride]	26 to 50%
CN[C@@H](C)C(=O)N[C@H]1CCO[C@H]2CC(C)(C)[C@@H](CN[C@@H]3CCOc4ccccc43)N2C1=O [Compound 73, (S)—N-((4S,7S,9aS)-7-((((R)-chroman-4-yl)amino)methyl)-8,8-dimethyl-5-oxooctahydropyrrolo[2,1-b][1,3]oxazepin-4-yl)-2-(methylamino)propanamide dihydrochloride]	26 to 50%
CN[C@@H](C)C(=O)N[C@H]1CCS[C@H]2CC(C)(C)[C@@H](C(=O)N[C@H](CCC(=O)O)c3ccccc3)N2C1=O [Compound 77, (R)-4-((4S,7S,9aS)-8,8-dimethyl-4-((S)-2-(methylamino)propanamido)-5-oxooctahydropyrrolo[2,1-b][1,3]thiazepine-7-carboxamido)-4-phenylbutanoic acid hydrochloride]	26 to 50%
